Data from BindingDB's records for doi:10.3109/14756366.2012.753591 (Gyeongsang National University, 2014).

Key:
Replicase polyprotein 1a = Replicase polyprotein 1a (Severe acute respiratory syndrome coronavirus, UniProt P0C6U8); experiment: SARS-CoV PLpro Inhibition Assay; conditions: pH 8
Experimental: (§1) Reactions were performed in a total volume of […], which contained thefollowing components: 20mM Tris-buffer, pH 8.0, 10mM DTT, […], 2% DMSO and varying concentrations of inhibitor ([…]). Assays were initiated with the addition of PLpro to produce a final enzyme concentration of 60 nM.

[1] = target: Replicase polyprotein 1a/Z-RLRGG-AMC (Severe acute respiratory syndrome coronavirus, UniProt P0C6U8); experiment: SARS-CoV PLpro Inhibition Assay; conditions: pH 8
Experimental: as §1

Row | SMILES | IC50 (Replicase polyprotein 1a) [µM] | Ki (Replicase polyprotein 1a) [µM] | Ki [1] [µM]
1 | O=c1ccc2ccc3occc3c2o1 [2H-furo[2,3-h]chromen-2-one] | > 150 | – | –
2 | COc1cc(O)c(C(=O)/C=C/c2ccc(O)cc2)cc1CC=C(C)C [4'-O-methylbavachalcone (4)] | 10.1 | 4.6 | –
3 | O=c1ccc2cc3ccoc3cc2o1 [7H-furo[3,2-g]chromen-7-one] | > 150 | – | –
4 | COc1cc2c(cc1CC=C(C)C)C(=O)CC(c1ccc(O)cc1)O2 (stereo unspecified) [Bavachinin (1)] | 38.4 | 18.4 | –
5 | CC(C)=CCC/C(C)=C\Cc1cc(-c2coc3cc(O)ccc3c2=O)ccc1O [Corylifol A (6)] | 32.3 | 11.4 | –
6 | CC(C)=CCc1c(O)ccc(C(=O)/C=C/c2ccc(O)cc2)c1O [Isobacachalcone] | 7.3 | 4.9 | 9.1
7 | CC(C)=CCc1cc(-c2coc3cc(O)ccc3c2=O)ccc1O [Neobavaisoflavone (2)] | 18.3 | 9.4 | –
8 | CC(C)=CCc1cc2c(cc1O)oc(=O)c1c3ccc(O)cc3oc21 [Psoralidin (5)] | 4.2 | 1.7 | 4.2
